# From patent US20230085307A1, “PYRIDAZINONE COMPOUND AND HERBICIDE” (NISSAN CHEMICAL CORPORATION, priority 2019, published 2023)
# Key:
# velvetleaf = test: Test Example 4: herbicidal effect by soil treatment (Table 19, symbol M); assay type: in vivo, velvetleaf (Abutilon theophrasti); conditions: amount of applied herbicide 320 g/ha
# Outline: (§1)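 Three weeks of greenhouse growth at 25° C. to 30° C. followed a uniform surface spray of water-diluted emulsion at a predetermined herbicide amount. Seeds had been sown beforehand under about 1.5 cm of sterilized diluvial soil. Grading followed criteria set out in an earlier test.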
# wild oat = test: Test Example 5: herbicidal effect by foliage application, plastic box (Table 20, symbol I); assay type: in vivo, wild oat (Avena fatua); conditions: foliage application, 320 g/ha, three weeks after application
# Outline: (§2)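 Plants sown in sterilized diluvial soil and grown 14 days in a greenhouse at 25° C to 30° C, then sprayed on the foliage with the compound's emulsion diluted in water to a predetermined herbicide amount. Injury to weeds and crops scored three weeks after application on a visual rating scale.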
# green foxtail [1] = test: Test Example 4: herbicidal effect by soil treatment (Table 19, symbol G); assay type: in vivo, green foxtail (Setaria viridis); conditions: amount of applied herbicide 320 g/ha
# Outline: as §1
# persian speedwell = test: Test Example 5: herbicidal effect by foliage application, plastic box (Table 20, symbol R); assay type: in vivo, Persian speedwell (Veronica persica); conditions: foliage application, 320 g/ha, three weeks after application
# Outline: as §2
# barnyard grass [2] = test: Test Example 5: herbicidal effect by foliage application, plastic box (Table 20, symbol H); assay type: in vivo, barnyard grass (Echinochloa crus-galli); conditions: foliage application, 320 g/ha, three weeks after application
# Outline: as §2
# barnyard grass [3] = test: Test Example 3: herbicidal effect by foliage application, Wagner pot (Table 18, symbol H); assay type: in vivo, barnyard grass (Echinochloa crus-galli); conditions: amount of applied herbicide 320 g/ha
# Outline: (§3)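 Plants were sown in alluvial soil held under 0.1–0.5 cm standing water and grown 14 days in a greenhouse at 25–30 °C. An emulsifiable formulation, water-diluted to the set dose, was then sprayed onto the foliage, and effects were scored three weeks later using previously defined criteria.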
# barnyard grass [4] = test: Test Example 4: herbicidal effect by soil treatment (Table 19, symbol H); assay type: in vivo, barnyard grass (Echinochloa crus-galli); conditions: amount of applied herbicide 320 g/ha
# Outline: as §1
# southern crabgrass = test: Test Example 4: herbicidal effect by soil treatment (Table 19, symbol F); assay type: in vivo, southern crabgrass (Digitaria ciliaris); conditions: amount of applied herbicide 320 g/ha
# Outline: as §1
# windgrass [5] = test: Test Example 4: herbicidal effect by soil treatment (Table 19, symbol L); assay type: in vivo, windgrass (Apera spica-venti); conditions: amount of applied herbicide 320 g/ha
# Outline: as §1
# oval-leafed pondweed = test: Test Example 1: herbicidal activity, application before weed generation under submerged conditions (Table 16, symbol C); assay type: in vivo, oval-leafed pondweed (Monochoria vaginalis); conditions: amount of applied herbicide 320 g/ha
# Outline: (§4)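 Emulsion formulation, water-diluted to set dose, was put onto the flooded surface (4 cm depth, alluvial soil) the same day weeds were sown and 2.5-leaf rice transplanted. After 3 weeks at 25-30 °C under glass, each species was rated 0 (≤5% kill) to 5 (≥90% kill).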
# lambsquarters = test: Test Example 5: herbicidal effect by foliage application, plastic box (Table 20, symbol O); assay type: in vivo, lambsquarters (Chenopodium album); conditions: foliage application, 320 g/ha, three weeks after application
# Outline: as §2
# windgrass [6] = test: Test Example 5: herbicidal effect by foliage application, plastic box (Table 20, symbol L); assay type: in vivo, windgrass (Apera spica-venti); conditions: foliage application, 320 g/ha, three weeks after application
# Outline: as §2
# redroot pigweed = test: Test Example 4: herbicidal effect by soil treatment (Table 19, symbol N); assay type: in vivo, redroot pigweed (Amaranthus retroflexus); conditions: amount of applied herbicide 320 g/ha
# Outline: as §1
# Chinese sprangletop = test: Test Example 3: herbicidal effect by foliage application, Wagner pot (Table 18, symbol D); assay type: in vivo, chinese sprangletop (Leptochloa chinensis); conditions: amount of applied herbicide 320 g/ha
# Outline: as §3
# rice flat sedge = test: Test Example 3: herbicidal effect by foliage application, Wagner pot (Table 18, symbol E); assay type: in vivo, rice flat sedge (Cyperus iria); conditions: amount of applied herbicide 320 g/ha
# Outline: as §3
# green foxtail [7] = test: Test Example 5: herbicidal effect by foliage application, plastic box (Table 20, symbol G); assay type: in vivo, green foxtail (Setaria viridis); conditions: foliage application, 320 g/ha, three weeks after application
# Outline: as §2
# Japanese bulrush = test: Test Example 1: herbicidal activity, application before weed generation under submerged conditions (Table 16, symbol B); assay type: in vivo, Japanese bulrush (Schoenoplectus juncoides); conditions: amount of applied herbicide 320 g/ha
# Outline: as §4
smiles,measurement,setting,value
"COc1ccc(-c2oc3ccc(F)cc3c2-c2c(O)c(C)nn(C)c2=O)cc1 [Compound No. 9-020, 4-(5-fluoro-2-(4-methoxyphenyl)benzofuran-3-yl)-5-hydroxy-2,6-dimethylpyridazin-3(2H)-one]","M: velvetleaf, herbicidal effect grade",velvetleaf,2 (Herbicidal rate of 20% or more and less than 40%)
same,herbicidal effect on wild oat (I),wild oat,3 (Herbicidal rate of 40% or more and less than 70%)
same,"G: green foxtail, herbicidal effect grade",green foxtail [1],1 (Herbicidal rate of 5% or more and less than 20%)
same,herbicidal effect on persian speedwell (R),persian speedwell,5 (Herbicidal rate of 90% or more (almost completely withered))
same,herbicidal effect on barnyard grass (H),barnyard grass [2],5 (Herbicidal rate of 90% or more (almost completely withered))
same,"Herbicidal effect on H (barnyard grass), foliage application",barnyard grass [3],5 (Herbicidal rate of 90% or more (almost completely withered))
same,"H: barnyard grass, herbicidal effect grade",barnyard grass [4],4 (Herbicidal rate of 70% or more and less than 90%)
same,"F: southern crabgrass, herbicidal effect grade",southern crabgrass,4 (Herbicidal rate of 70% or more and less than 90%)
same,"L: windgrass, herbicidal effect grade",windgrass [5],2 (Herbicidal rate of 20% or more and less than 40%)
same,"Herbicidal effect, C: oval-leafed pondweed",oval-leafed pondweed,5 (Herbicidal rate of 90% or more (almost completely withered))
same,herbicidal effect on lambsquarters (O),lambsquarters,5 (Herbicidal rate of 90% or more (almost completely withered))
same,herbicidal effect on windgrass (L),windgrass [6],5 (Herbicidal rate of 90% or more (almost completely withered))
same,"N: redroot pigweed, herbicidal effect grade",redroot pigweed,5 (Herbicidal rate of 90% or more (almost completely withered))
same,"Herbicidal effect on D (Chinese sprangletop), foliage application",Chinese sprangletop,4 (Herbicidal rate of 70% or more and less than 90%)
same,"Herbicidal effect on E (rice flat sedge), foliage application",rice flat sedge,5 (Herbicidal rate of 90% or more (almost completely withered))
same,herbicidal effect on green foxtail (G),green foxtail [7],5 (Herbicidal rate of 90% or more (almost completely withered))
same,"Herbicidal effect, B: Japanese bulrush",Japanese bulrush,5 (Herbicidal rate of 90% or more (almost completely withered))
